# Test results: US8173813B2, “Quinolone and tetrahydroquinolone and related compounds having NOS inhibitory activity” (NeurAxon, Inc., priority 2007, dated 2012)
# Counter-ions that a name gives are not always drawn. Like-named read-outs stand apart in the source and are kept apart here.
# Legend:
# Format in all cases: biochemical
# eNOS (Rat) = eNOS (Rat) (Rattus norvegicus, UniProt Q62600); test: eNOS (Rat) enzyme assay; settings: values in parentheses, read-out: eNOS IC50 (rodent data in parentheses)
# nNOS (Rat) = nNOS (Rat) (Rattus norvegicus, UniProt P29476); test: nNOS (Rat) enzyme assay; settings: for IC50: read-out: nNOS IC50 (rodent data in parentheses); for Selectivity eNOS/nNOS (rodent data in parentheses): rodent enzymes
# Description: (§1) nNOS (Rat), eNOS (Rat) and iNOS (Mouse) Enzyme Assay Recombinant rat or mouse NO synthases (iNOS, eNOS, nNOS) were expressed in Sf9 cells (Sigma), 36 mg prot/ml (Bradford). […] Inhibition of NOS was determined by measuring the formation of L-[3H] citrulline from L-[3H] arginine. […] Stop buffer:100 mM Hepes, pH 5.5, 3 mM EDTA, 3 mM EGTA.
# iNOS (Mouse) = iNOS (Mouse) (Mus musculus, UniProt P29477); test: iNOS (Mouse) enzyme assay; settings: values in parentheses, read-out: iNOS IC50 (rodent data in parentheses)
# Description: as §1, with “EGTA. Enzyme and inhibitor were pre-incubated for 35 min in the presence of NADPH before addition of arginine to initiate the reaction.” for “EGTA.”
# [1] = biological target: Nitric oxide synthase (neuronal, human recombinant) nNOS (Homo sapiens, UniProt P29475); test: Human nNOS enzyme assay ([3H]L-arginine to [3H]L-citrulline); settings: for Selectivity eNOS/nNOS: human enzymes, ratio of eNOS IC50 to nNOS IC50; for IC50: read-out: hnNOS IC50
# [2] = biological target: Nitric oxide synthase (endothelial, human recombinant) eNOS (Homo sapiens, UniProt P29474); test: Human eNOS enzyme assay ([3H]L-arginine to [3H]L-citrulline); settings: read-out: heNOS IC50
# [3] = biological target: Recombinant human inducible NOS (iNOS) (Homo sapiens, UniProt P35228); test: Human iNOS enzyme assay, radiometric; settings: read-out: hiNOS IC50
# [4] = human recombinant nNOS, values without parentheses
# [5] = human recombinant eNOS, values without parentheses
# [6] = rat nNOS, values in parentheses
# [7] = human recombinant iNOS, values without parentheses
# Sequence of Nitric oxide synthase (neuronal, human recombinant) nNOS (P29475 whole entry): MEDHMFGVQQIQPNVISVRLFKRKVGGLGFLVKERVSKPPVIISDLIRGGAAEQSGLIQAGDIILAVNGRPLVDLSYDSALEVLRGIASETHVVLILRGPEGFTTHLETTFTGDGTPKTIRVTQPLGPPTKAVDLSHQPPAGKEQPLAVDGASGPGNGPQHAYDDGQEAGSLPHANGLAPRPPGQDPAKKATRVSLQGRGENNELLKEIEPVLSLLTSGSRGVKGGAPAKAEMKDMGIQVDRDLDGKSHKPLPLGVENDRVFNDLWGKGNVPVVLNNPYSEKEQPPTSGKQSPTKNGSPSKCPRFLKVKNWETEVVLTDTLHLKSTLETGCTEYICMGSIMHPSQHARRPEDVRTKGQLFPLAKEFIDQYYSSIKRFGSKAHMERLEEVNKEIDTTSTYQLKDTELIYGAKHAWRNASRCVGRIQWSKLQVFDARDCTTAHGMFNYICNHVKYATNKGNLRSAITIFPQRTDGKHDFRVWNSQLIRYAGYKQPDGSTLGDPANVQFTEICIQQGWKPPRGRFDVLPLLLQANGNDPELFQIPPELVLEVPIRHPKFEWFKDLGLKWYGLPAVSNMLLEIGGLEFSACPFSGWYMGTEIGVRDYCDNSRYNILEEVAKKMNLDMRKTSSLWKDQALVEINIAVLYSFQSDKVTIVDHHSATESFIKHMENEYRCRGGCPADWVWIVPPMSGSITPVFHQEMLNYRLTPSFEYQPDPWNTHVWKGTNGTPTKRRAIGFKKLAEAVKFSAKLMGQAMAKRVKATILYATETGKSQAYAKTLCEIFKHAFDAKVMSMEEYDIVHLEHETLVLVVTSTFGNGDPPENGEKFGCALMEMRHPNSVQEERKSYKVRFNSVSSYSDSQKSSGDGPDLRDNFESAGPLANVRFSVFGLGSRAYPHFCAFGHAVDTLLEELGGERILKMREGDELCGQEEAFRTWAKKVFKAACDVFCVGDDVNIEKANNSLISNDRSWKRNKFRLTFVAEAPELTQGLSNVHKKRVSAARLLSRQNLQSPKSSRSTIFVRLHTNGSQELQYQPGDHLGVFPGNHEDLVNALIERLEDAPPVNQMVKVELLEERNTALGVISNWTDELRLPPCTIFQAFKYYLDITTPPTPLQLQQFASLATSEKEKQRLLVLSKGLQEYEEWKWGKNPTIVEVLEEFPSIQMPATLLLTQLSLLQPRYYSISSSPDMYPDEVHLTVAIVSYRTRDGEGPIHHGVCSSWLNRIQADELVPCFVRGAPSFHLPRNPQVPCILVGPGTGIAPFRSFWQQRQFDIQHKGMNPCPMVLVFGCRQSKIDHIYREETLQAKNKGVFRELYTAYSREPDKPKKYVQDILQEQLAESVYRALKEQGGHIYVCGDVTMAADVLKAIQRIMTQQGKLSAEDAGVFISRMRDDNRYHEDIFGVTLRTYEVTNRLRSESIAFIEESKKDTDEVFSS
# Sequence of eNOS (Rat) (Q62600 2-1202): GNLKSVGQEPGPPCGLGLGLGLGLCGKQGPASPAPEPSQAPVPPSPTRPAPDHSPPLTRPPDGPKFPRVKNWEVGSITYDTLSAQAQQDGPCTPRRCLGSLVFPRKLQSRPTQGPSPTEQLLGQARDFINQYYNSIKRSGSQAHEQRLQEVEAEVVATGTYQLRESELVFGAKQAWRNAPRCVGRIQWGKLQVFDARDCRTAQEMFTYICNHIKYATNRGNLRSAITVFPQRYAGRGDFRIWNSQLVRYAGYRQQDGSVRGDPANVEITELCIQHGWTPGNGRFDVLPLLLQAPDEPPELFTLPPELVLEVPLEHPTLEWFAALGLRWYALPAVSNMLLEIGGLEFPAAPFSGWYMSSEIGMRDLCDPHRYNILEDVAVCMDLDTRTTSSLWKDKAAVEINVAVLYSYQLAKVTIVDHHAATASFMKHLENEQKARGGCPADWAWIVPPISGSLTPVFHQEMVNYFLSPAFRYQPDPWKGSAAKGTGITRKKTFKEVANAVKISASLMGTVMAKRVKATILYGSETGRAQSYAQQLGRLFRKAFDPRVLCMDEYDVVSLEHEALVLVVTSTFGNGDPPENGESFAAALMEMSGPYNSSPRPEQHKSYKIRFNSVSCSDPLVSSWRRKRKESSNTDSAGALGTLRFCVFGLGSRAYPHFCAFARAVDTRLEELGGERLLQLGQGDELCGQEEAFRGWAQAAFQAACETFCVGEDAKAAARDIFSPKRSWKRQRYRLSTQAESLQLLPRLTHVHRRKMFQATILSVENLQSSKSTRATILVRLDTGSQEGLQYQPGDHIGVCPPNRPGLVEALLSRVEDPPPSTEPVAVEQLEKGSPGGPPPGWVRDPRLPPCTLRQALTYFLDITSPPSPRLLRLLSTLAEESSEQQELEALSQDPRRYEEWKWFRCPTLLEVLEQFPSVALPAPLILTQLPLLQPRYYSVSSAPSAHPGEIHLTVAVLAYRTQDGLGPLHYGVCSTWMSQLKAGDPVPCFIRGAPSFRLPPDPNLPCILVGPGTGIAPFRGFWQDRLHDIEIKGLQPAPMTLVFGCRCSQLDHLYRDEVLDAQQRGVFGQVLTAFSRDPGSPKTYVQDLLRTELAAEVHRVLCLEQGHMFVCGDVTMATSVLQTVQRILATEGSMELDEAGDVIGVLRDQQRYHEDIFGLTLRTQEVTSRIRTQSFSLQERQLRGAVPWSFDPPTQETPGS
# Sequence of Recombinant human inducible NOS (iNOS) (P35228 whole entry): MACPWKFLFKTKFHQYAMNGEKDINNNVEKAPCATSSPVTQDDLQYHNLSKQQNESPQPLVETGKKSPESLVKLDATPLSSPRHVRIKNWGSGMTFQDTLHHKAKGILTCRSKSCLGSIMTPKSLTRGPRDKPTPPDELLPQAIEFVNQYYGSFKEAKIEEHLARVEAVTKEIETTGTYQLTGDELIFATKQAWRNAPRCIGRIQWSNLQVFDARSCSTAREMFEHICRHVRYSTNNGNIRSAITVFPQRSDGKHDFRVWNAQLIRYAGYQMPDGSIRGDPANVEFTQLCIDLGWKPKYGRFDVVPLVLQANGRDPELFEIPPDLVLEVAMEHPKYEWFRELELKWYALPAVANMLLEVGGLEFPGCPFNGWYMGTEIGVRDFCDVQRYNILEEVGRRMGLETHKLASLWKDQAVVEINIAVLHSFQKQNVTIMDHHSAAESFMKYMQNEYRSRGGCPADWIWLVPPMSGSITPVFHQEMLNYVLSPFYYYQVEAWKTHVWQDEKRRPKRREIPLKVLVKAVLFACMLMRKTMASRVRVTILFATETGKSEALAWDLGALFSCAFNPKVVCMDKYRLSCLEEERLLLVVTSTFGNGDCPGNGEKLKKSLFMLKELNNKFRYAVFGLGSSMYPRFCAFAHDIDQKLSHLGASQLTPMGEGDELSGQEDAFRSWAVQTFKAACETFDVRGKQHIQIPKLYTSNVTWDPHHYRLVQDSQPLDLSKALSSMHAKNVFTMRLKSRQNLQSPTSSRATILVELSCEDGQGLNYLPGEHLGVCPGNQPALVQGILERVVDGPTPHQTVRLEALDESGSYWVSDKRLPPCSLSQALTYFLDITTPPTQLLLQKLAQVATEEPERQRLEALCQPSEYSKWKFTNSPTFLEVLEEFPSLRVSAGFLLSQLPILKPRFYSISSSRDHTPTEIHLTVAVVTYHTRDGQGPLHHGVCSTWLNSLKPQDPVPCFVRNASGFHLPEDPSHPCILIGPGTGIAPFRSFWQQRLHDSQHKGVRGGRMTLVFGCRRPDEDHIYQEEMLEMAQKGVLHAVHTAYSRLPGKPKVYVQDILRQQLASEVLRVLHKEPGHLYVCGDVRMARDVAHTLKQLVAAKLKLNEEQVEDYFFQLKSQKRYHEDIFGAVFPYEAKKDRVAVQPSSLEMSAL
# Sequence of Nitric oxide synthase (endothelial, human recombinant) eNOS (P29474 2-1203): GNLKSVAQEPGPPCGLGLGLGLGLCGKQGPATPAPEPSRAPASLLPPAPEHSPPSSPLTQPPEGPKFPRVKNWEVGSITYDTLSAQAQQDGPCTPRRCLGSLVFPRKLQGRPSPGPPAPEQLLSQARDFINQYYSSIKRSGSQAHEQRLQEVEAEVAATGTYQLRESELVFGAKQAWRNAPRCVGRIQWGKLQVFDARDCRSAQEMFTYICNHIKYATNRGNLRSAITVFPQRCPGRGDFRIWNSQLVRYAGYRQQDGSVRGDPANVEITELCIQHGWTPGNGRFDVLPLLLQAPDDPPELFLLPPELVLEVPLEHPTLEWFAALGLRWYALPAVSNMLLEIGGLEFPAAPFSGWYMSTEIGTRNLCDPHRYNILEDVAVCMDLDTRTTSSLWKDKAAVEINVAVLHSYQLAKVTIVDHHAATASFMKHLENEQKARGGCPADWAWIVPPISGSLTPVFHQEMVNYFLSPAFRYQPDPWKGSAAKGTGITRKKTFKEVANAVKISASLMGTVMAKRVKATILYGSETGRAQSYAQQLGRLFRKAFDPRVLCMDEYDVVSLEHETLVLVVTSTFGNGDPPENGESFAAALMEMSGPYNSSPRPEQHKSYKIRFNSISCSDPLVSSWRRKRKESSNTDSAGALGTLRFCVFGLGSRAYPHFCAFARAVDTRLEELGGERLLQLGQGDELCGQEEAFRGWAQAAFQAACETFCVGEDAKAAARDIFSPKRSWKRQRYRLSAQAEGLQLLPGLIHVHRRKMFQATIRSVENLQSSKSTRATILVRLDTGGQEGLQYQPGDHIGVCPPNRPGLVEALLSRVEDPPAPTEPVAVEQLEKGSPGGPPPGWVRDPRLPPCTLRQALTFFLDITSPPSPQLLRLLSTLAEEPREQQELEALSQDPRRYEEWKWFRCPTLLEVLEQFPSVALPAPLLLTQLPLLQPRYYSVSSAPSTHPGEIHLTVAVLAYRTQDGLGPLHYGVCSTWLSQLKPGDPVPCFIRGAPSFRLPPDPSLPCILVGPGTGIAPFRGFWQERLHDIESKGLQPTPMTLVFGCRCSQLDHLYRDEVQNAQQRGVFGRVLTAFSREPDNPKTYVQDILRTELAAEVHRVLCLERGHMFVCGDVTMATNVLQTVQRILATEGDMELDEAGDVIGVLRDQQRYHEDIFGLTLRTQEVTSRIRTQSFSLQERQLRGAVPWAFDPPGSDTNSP
SMILES,IC50 (eNOS (Rat)),Selectivity eNOS/nNOS [1],"IC50 [1, 4]","IC50 [2, 5]",IC50 (nNOS (Rat); [6]),"IC50 [3, 7]",IC50 [1],IC50 [2],IC50 (nNOS (Rat)),Selectivity eNOS/nNOS (rodent data in parentheses) (nNOS (Rat); values in parentheses),IC50 (iNOS (Mouse)),IC50 [3]
"CN1CCCC1CCN1CCCc2cc(NC(=N)c3cccs3)ccc21 (single isomer, unassigned) [Example 24, N-(1-(2-(1-Methylpyrrolidin-2-yl)ethyl)-1,2,3,4-tetrahydroquinolin-6-yl)thiophene-2-carboximidamide]",22 µM,91.7,170 nM,15.4 µM,,,,,120 nM,(183),> 100 µM,33.2 µM
"CN1CCC(N2CCCc3cc(NC(=N)c4cccs4)ccc32)C1 (single isomer, unassigned) [Example 57, N-(1-(1-Methylpyrrolidin-3-yl)-1,2,3,4-tetrahydroquinolin-6-yl)thiophene-2-carboximidamide]",> 100 µM,622,320 nM,199 µM,504 nM,40.4 µM,,,,,,
"N=C(Nc1ccc2c(c1)CCCN2C1CCNC1)c1cccs1 (single isomer, unassigned; (-)) [Example 65, (−)-N-(1-(pyrrolidin-3-yl)-1,2,3,4-tetrahydroquinolin-6-yl)thiophene-2-carboximidamide dihydrochloride]",9.08 µM,,310 nM,22.5 µM,280 nM,,,,,,7.5 µM,
"N=C(Nc1ccc2c(c1)CCC(=O)N2CCN1CCCCC1)c1cccs1 [Example 1, N-(2-oxo-1-(2-(piperidin-1-yl)ethyl)-1,2,3,4-tetrahydroquinolin-6-yl)thiophene-2-carboximidamide]",52 µM,,,,22 nM,39 µM,780 nM,25.2 µM,,,8.5 µM,
"Cl.Cl.N=C(Nc1ccc2c(c1)CCCN2CCN1CCCC1)c1cccs1 [Example 12, N-(1-(2-(pyrrolidin-1-yl)ethyl)-1,2,3,4-tetrahydroquinolin-6-yl)thiophene-2-carboximidamide dihydrochloride]",> 100 µM,115,310 nM,36 µM,1900 nM,,,,,,> 100 µM,
"CN1CCC(N2CCCCc3cc(NC(=N)c4cccs4)ccc32)CC1 [Example 39, N-(1-(1-Methylpiperidin-4-yl)-2,3,4,5-tetrahydro-1H-benzo[b]azepin-7-yl)thiophene-2-carboximidamide]",,,,,,,2960 nM,20 µM,,,,1.34 µM
"CN(C)CCN1C(=O)CCc2cc(NC(=N)c3cccs3)cc(F)c21 [Example 41, N-(1-(2-(Dimethylamino)ethyl)-8-fluoro-2-oxo-1,2,3,4-tetrahydroquinolin-6-yl)thiophene-2-carboximidamide]",,,3300 nM,,,3.27 µM,,194 µM,,,,
"N=C(Nc1ccc2c(c1)C(C1CCNC1)C(=O)N2)c1cccs1 (centres unmarked) [Example 43, N-(2-Oxo-3-(pyrrolidin-3-yl)indolin-5-yl)thiophene-2-carboximidamide]",,152,180 nM,27.4 µM,,7.03 µM,,,,,,
"N=C(Nc1ccc2c(c1)CCCCN2C1CCNC1)c1cccs1 (centres unmarked) [Example 48, N-(1-(Pyrrolidin-3-yl)-2,3,4,5-tetrahydro-1H-benzo[b]azepin-7-yl)thiophene-2-carboximidamide]",,,,,,0.61 µM,330 nM,75 µM,,,,
"CN1CCCC1CCN1CCCc2cc(NC(=N)c3cccs3)cc(F)c21.Cl.Cl (centres unmarked) [Example 55, N-(8-Fluoro-1-(2-(1-methylpyrrolidin-2-yl)ethyl)-1,2,3,4-tetrahydroquinolin-6-yl)thiophene-2-carboximidamide dihydrochloride]",,181,80 nM,14.5 µM,,> 100 µM,,,,,,
"CN(C)CCCN1CCCc2cc(NC(=N)c3cccs3)ccc21 [Example 59, N-(1-(3-(Dimethylamino)propyl)-1,2,3,4-tetrahydroquinolin-6-yl)thiophene-2-carboximidamide]",,,270 nM,,,34.5 µM,,22.4 µM,,,,
"CCNCCN1CCCc2cc(NC(=N)c3cccs3)ccc21 [Example 60, N-(1-(2-(Ethylamino)ethyl)-1,2,3,4-tetrahydroquinolin-6-yl)thiophene-2-carboximidamide]",> 100 µM,135,390 nM,52.8 µM,440 nM,16.6 µM,,,,(>227),,
"CN(CCO)CCN1CCCc2cc(NC(=N)c3cccs3)ccc21 [Example 62, N-(1-(2-((2-Hydroxyethyl)(methyl)amino)ethyl)-1,2,3,4-tetrahydroquinolin-6-yl)thiophene-2-carboximidamide]",,492,130 nM,63.9 µM,940 nM,,,,,,7 µM,

# Further lines, with some results ahead:
IC50 (eNOS (Rat)),Selectivity eNOS/nNOS [1],"IC50 [1, 4]","IC50 [2, 5]",IC50 (nNOS (Rat); [6]),"IC50 [3, 7]",IC50 [1],IC50 [2],SMILES,IC50 (nNOS (Rat)),Selectivity eNOS/nNOS (rodent data in parentheses) (nNOS (Rat); values in parentheses),IC50 (iNOS (Mouse)),IC50 [3]
4.5 µM,203,90 nM,18.3 µM,87 nM,34 µM,,,"CN1CCC(N2CCCc3cc(NC(=N)c4cccs4)ccc32)C1 (single isomer, unassigned) [Example 56, N-(1-(1-Methylpyrrolidin-3-yl)-1,2,3,4-tetrahydroquinolin-6-yl)thiophene-2-carboximidamide]",,,,
,,10 nM,14.2 µM,100 nM,,,,"N=C(Nc1ccc2c(c1)CCCN2C1CCNC1)c1cccs1 (single isomer, unassigned; (+)) [Example 66, (+)-N-(1-(pyrrolidin-3-yl)-1,2,3,4-tetrahydroquinolin-6-yl)thiophene-2-carboximidamide dihydrochloride]",,,2.9 µM,
,,,,,4.9 µM,360 nM,27.5 µM,"CN1CCC(N2CCCc3cc(NC(=N)c4cccs4)ccc32)C1 (centres unmarked) [Example 35, N-(1-(1-Methylpyrrolidin-3-yl)-1,2,3,4-tetrahydroquinolin-6-yl)thiophene-2-carboximidamide]",,,,
,14.8,10000 nM,148 µM,,8.21 µM,,,"N=C(Nc1ccc2c(c1)CCCC(=O)N2CCN1CCCCC1)c1cccs1 [Example 38, N-(2-Oxo-1-(2-(piperidin-1-yl)ethyl)-2,3,4,5-tetrahydro-1H-benzo[b]azepin-7-yl)thiophene-2-carboximidamide]",,,,
,,1900 nM,,,> 100 µM,,56.3 µM,"N=C(Nc1ccc2c(c1)CCCCN2CCN1CCCCC1)c1cccs1 [Example 40, N-(1-(2-(Piperidin-1-yl)ethyl)-2,3,4,5-tetrahydro-1H-benzo[b]azepin-7-yl)thiophene-2-carboximidamide]",,,,
,,90 nM,,,> 100 µM,,24.3 µM,"CN(C)CCN1CCCc2cc(NC(=N)c3cccs3)cc(F)c21 [Example 42, N-(1-(2-(Dimethylamino)ethyl)-8-fluoro-1,2,3,4-tetrahydroquinolin-6-yl)thiophene-2-carboximidamide]",,,,
,,2300 nM,,,> 100 µM,,66.3 µM,"N=C(Nc1ccc2c(c1)CCCCN2C1CCNCC1)c1cccs1 [Example 58, N-(1-(piperidin-4-yl)-2,3,4,5-tetrahydro-1H-benzo[b]azepin-7-yl)thiophene-2-carboximidamide]",,,,
